Test results reported in patent publication US5136090A, “Biphenyl-5,5'-bis-alkanoic acid derivatives, their production and aldose reductase inhibitors containing the same” (Toyo Jozo Kabushiki Kaisha, priority 1990, dated 1992).

Tests used:
Sciatic Nerve = test: Suppression of sorbitol accumulation in cultured sciatic nerve; type: cell-based, Wistar rats; details: concentration 1.0 μg/ml, rat sciatic nerve cultured 20 hours with 0.9% glucose; for inhibition at 1 µg/mL: Rattus norvegicus, 20 h
Protocol: (§1) Lenses and sciatic nerves extirpated from Wistar rats, male, aged 7 weeks, were washed twice with an aseptic buffer solution consisting of 0.3% trisaminomethane, 0.8% NaCl, 0.038% KCl, 0.025% Na2 HPO4 ·12H2 O, 0.1% glucose and 1.85 ml/l of concentrated HCl.
(§2) The lenses and the sciatic nerves were then preincubated for 30 mins. in a culture medium prepared by adding 2 ml of 7.5% NaHCO3 aseptic solution and 5.5 ml of aseptic calf fetus serum to 100 ml of an aseptic culture medium of 0.98% TC Medium 199 (NISSUI Corp.) containing 0.01% of dihydrostreptomycin and 0.01% of benzylpenicillin. Thereafter, the intrinsic culture was effected in a culture medium prepared by adding each sample solution to be examined and 0.9% of glucose to the abovementioned culture medium and permitting culturing to proceed for 20 hours. The incubation was effected at 37° C. in an atmosphere composed of 95% air and 5% CO2.
(§3) After culturing, the cultured samples of lens and sciatic nerve were removed from the culture medium to filter paper and the weight of each of them was measured after the adherent culture solution had been blown off. Then, each of the cultured samples was homogenized with the addition of 1 ml of a cold 8% HClO4 solution and the homogenized mixture was subjected to centrifugation at 10,000 G for 10 mins., whereby a supernatant was obtained. The resulting precipitate was then homogenized again with addition thereto of 0.5 ml of cold 8% HClO4 solution and the homogenized mixture was again subjected to centrifugation in a similar way as above to obtain a further supernatant. This was combined with the previously obtained supernatant and the resulting solution was neutralized with 2N KOH aq. solution and was supplemented with distilled water to a volume of 5 ml. The precipitate formed by neutralization was separated by centrifugation at 3,000 rpm for 10 mins. and the resulting supernatant was employed as the sample for determining the sorbitol content.
(§4) The determination of the sorbitol content in the lens and in the sciatic nerve was carried out in accordance with the method of Bergmeyer in "Methods of Enzymatic Analysis" edited by H. U. Bergmeyer, pp 1323-1326, Academic Press, New York, 1974 and in accordance with the method of Malaon et al. in "Diabetes" 29, 861-864 (1980).
(§5) To 0.5 ml cf the sample solution for determination of sorbitol content obtained as above, 0.9 ml of 0.1M glycine-KOH buffer solution (pH 9.4) containing 1 mM of NAD^+ and 0.1 ml of a solution of sorbitol dehydrogenase of 20 units/ml were added and the resulting mixture was subjected to incubation at 37° C. for 1 hour.
(§6) The content of sorbitol in each tissue was estimated by assuming the increment of the optical absorption at 340 nm to be proportional to the amount of NADH produced by the reaction for the lens and by detecting the fluorescence with an excitation wavelength of 366 nm and a fluorescence wavelength of 425 nm for the sciatic nerve.
(§7) The activity for suppressing accumulation of sorbitol, i.e. the aldose reductase inhibiting activity, was calculated from the determined sorbitol content by the calculation formula [formula] in which A denotes the content of sorbitol per unit weight of the tissue after cultivation with addition of the inhibitor, B denotes the sorbitol content per unit weight of the tissue after cultivation without addition of the inhibitor and C represents the sorbitol content per unit weight of the tissue after cultivation in the medium without addition of glucose and inhibitor.

[1] = target: T1, partially purified bovine lens aldose reductase (Bos taurus, UniProt P16116); test: Inhibitory activity on aldose reductase enzyme reaction; type: biochemical; details: for inhibition at 0.1 µg/mL: concentration 0.1 μg/ml; for inhibition at 1 µg/mL: concentration 1.0 μg/ml; for inhibition at 0.02 µg/mL: concentration 0.02 μg/ml
T1 construct: partially purified bovine lens aldose reductase; from tissue; host or cells: bovine lens
Protocol: The preparation of aldose reductase and the determination of its inhibitory action on enzyme reaction activity were carried out pursuant to the procedures disclosed by Haymann et al. in Journal of Biological Chemistry, 240, 877 (1965).
The sample solution to be examined for inhibitory activity was prepared by dissolving a compound of formula (I) according to the present invention in a small amount of methanol and increasing the volume of the resulting methanol solution by diluting it with distilled water up to tenfold volume. A partially purified bovine lens aldose reductase was used for the assay.
To 2.4 ml of a solution of 5×10^-5 M NADPH dissolved in a 2/15M phosphate buffer solution (pH 6.0), 0.4 ml of the enzyme solution (15 m units/ml) and 0.1 ml of the sample solution to be examined were added and the mixture was introduced into a quartz cell in a photoelectric photometer and subjected to pre-incubation at 37° C. for 4 mins. Then, 0.1 ml of a 0.015M D,L-glyceraldehyde solution was added thereto for initiating the enzyme reaction and the decrease in the optical absorption at 340 nm was measured at 37° C. for 4 mins. The inhibitory activity on aldose reductase was calculated by the following equation: [formula] in which A represents the enzyme reaction rate with addition of the inhibitor and B denotes the enzyme reaction rate without addition of the inhibitor.

Lens = test: Suppression of sorbitol accumulation in cultured lens; type: cell-based, Wistar rats; details: rat lens cultured 20 hours with 0.9% glucose; for inhibition at 5 µg/mL: concentration 5 μg/ml; for inhibition at 2.5 µg/mL: concentration 2.5 μg/ml
Protocol: as §1, §2, §3, §4, §5, §6, §7

## O=C(O)CCc1ccc(O)c(-c2cc(CCC(=O)O)ccc2OCc2ccccc2)c1 [Example 1, 2-benzyloxy-2'-hydroxy-5,5'-bis (2carboxyethyl) biphenyl]
Sciatic Nerve
  inhibition at 1 µg/mL: 64.6%
[1]
  inhibition at 0.1 µg/mL: 60.8%
  inhibition at 1 µg/mL: 92.8%
Lens
  inhibition at 5 µg/mL: 69.9%

## O=C(O)CCc1ccc(O)c(-c2cc(CCC(=O)O)ccc2OCc2ccc(Br)cc2F)c1 [Example 2, 2-(2-fluoro-4-bromobenzyloxy)-2'-hydroxy-5,5'-bis (2-carboxyethyl) biphenyl]
[1]
  inhibition at 0.1 µg/mL: 54%
  inhibition at 1 µg/mL: 89.1%

## O=C(O)CCc1ccc(O)c(-c2cc(CCC(=O)O)ccc2OCC2CCCCC2)c1 [Example 3, 2-cyclohexylmethoxy-2'-hydroxy-5,5'-bis (2-carboxyethyl) biphenyl]
Sciatic Nerve
  inhibition at 1 µg/mL: 73.2%
  Inhibition of sorbitol Accumulation (%) Sciatic Nerve: 64.8%
[1]
  inhibition at 0.1 µg/mL: 73.6%
  inhibition at 1 µg/mL: 91.9%
Lens
  inhibition at 2.5 µg/mL: 44.7%
  inhibition at 5 µg/mL: 85.2%

## O=C(O)CCc1ccc(O)c(-c2cc(CCC(=O)O)ccc2OCC2CCCCO2)c1 (stereo not shown) [Example 4, 2-(tetrahydro-2H-pyran-2-yl) methoxy-2'-hydroxy-5,5'-bis (2-carboxyethyl) biphenyl]
[1]
  inhibition at 0.1 µg/mL: 50.4%
  inhibition at 1 µg/mL: 88.2%

## CCCOc1ccc(CCC(=O)O)cc1-c1cc(CCC(=O)O)ccc1O [Example 5, 2-propoxy-2'-hydroxy-5,5'-bis (2carboxyethyl) biphenyl]
Sciatic Nerve
  inhibition at 1 µg/mL: 73.3%
  Inhibition of sorbitol Accumulation (%) Sciatic Nerve: 73.8%
[1]
  inhibition at 0.1 µg/mL: 73.6%
  inhibition at 1 µg/mL: 90%
Lens
  inhibition at 2.5 µg/mL: 32.7%
  inhibition at 5 µg/mL: 79.2%

## CCCCOc1ccc(CCC(=O)O)cc1-c1cc(CCC(=O)O)ccc1O [Example 6, 2-butoxy-2'-hydroxy-5,5'-bis (2-carboxyethyl) biphenyl]
[1]
  inhibition at 0.1 µg/mL: 58.6%
  inhibition at 1 µg/mL: 90%

## CCCCCOc1ccc(CCC(=O)O)cc1-c1cc(CCC(=O)O)ccc1O [Example 7, 2-pentyloxy-2'-hydroxy-5,5'-bis (2carboxyethyl) biphenyl]
[1]
  inhibition at 0.1 µg/mL: 56.4%
  inhibition at 1 µg/mL: 90.9%

## CCCCCCOc1ccc(CCC(=O)O)cc1-c1cc(CCC(=O)O)ccc1O [Example 8, 2-hexyloxy-2'-hydroxy-5,5'-bis (2carboxyethyl) biphenyl]
[1]
  inhibition at 0.1 µg/mL: 58.6%
  inhibition at 1 µg/mL: 91.9%

## CCCCCCCOc1ccc(CCC(=O)O)cc1-c1cc(CCC(=O)O)ccc1O [Example 9, 2-heptyloxy-2'-hydroxy-5,5'-bis (2-carboxyethyl) biphenyl]
Sciatic Nerve
  inhibition at 1 µg/mL: 37.8%
[1]
  inhibition at 0.1 µg/mL: 65.3%
  inhibition at 1 µg/mL: 91.9%
Lens
  inhibition at 5 µg/mL: 65%

## CCCCCCCCOc1ccc(CCC(=O)O)cc1-c1cc(CCC(=O)O)ccc1O [Example 10, 2-octyloxy-2'-hydroxy-5,5'-bis (2-carboxyethyl) biphenyl]
Sciatic Nerve
  inhibition at 1 µg/mL: 33.6%
[1]
  inhibition at 0.1 µg/mL: 67.4%
  inhibition at 1 µg/mL: 93.7%
Lens
  inhibition at 5 µg/mL: 37.7%

## CCCCCCCCCCCOc1ccc(CCC(=O)O)cc1-c1cc(CCC(=O)O)ccc1O [Example 11, 2-undecyloxy-2'-hydroxy-5,5'-bis (2-carboxyethyl) biphenyl]
Sciatic Nerve
  inhibition at 1 µg/mL: 34.7%
[1]
  inhibition at 0.1 µg/mL: 81.5%
  inhibition at 1 µg/mL: 92.8%

## CC(C)CCOc1ccc(CCC(=O)O)cc1-c1cc(CCC(=O)O)ccc1O [Example 12, 2-isopentyloxy-2'-hydroxy-5, 5'-bis (2-carboxyethyl) biphenyl]
Sciatic Nerve
  inhibition at 1 µg/mL: 59.5%
[1]
  inhibition at 0.1 µg/mL: 61.9%
  inhibition at 1 µg/mL: 89.1%
Lens
  inhibition at 5 µg/mL: 78.1%

## O=C(O)CCCOc1ccc(CCC(=O)O)cc1-c1cc(CCC(=O)O)ccc1O [Example 13, 2-(3-carboxypropoxy)-2'-hydroxy-5, 5'-bis (2-carboxyethyl) biphenyl]
[1]
  inhibition at 0.1 µg/mL: 60.6%
  inhibition at 1 µg/mL: 95.2%

## O=C(O)CCc1ccc(O)c(-c2cc(CCC(=O)O)ccc2OCCc2ccccc2)c1 [Example 14, 2-phenethyloxy-2'-hydroxy-5, 5'-bis (2-carboxyethyl) biphenyl]
Sciatic Nerve
  inhibition at 1 µg/mL: 62.4%
[1]
  inhibition at 0.1 µg/mL: 52.4%
  inhibition at 1 µg/mL: 90.5%

## O=C(O)CCc1ccc(O)c(-c2cc(CCC(=O)O)ccc2OC2CCCCC2)c1 [Example 15, 2-cyclohexyloxy-2'-hydroxy-5, 5'-bis (2-carboxyethyl) biphenyl]
Sciatic Nerve
  inhibition at 1 µg/mL: 43.2%
[1]
  inhibition at 0.1 µg/mL: 47.6%
  inhibition at 1 µg/mL: 89.6%

## O=C(O)CCCc1ccc(O)c(-c2cc(CCCC(=O)O)ccc2OCc2ccccc2)c1 [Example 18, 2-benzyloxy-2'-hydroxy-5,5'-bis (3-carboxypropyl) biphenyl]
[1]
  inhibition at 0.02 µg/mL: 22%
  inhibition at 0.1 µg/mL: 60.6%

## O=C(O)CCCc1ccc(O)c(-c2cc(CCCC(=O)O)ccc2OCc2ccc(Br)cc2F)c1 [Example 19, 2-(2-fluoro-4-bromobenzyloxy)-2'-hydroxy-5, 5'-bis (3-carboxypropyl) biphenyl]
[1]
  inhibition at 0.02 µg/mL: 23.8%
  inhibition at 0.1 µg/mL: 62.6%

## O=C(O)CCCc1ccc(O)c(-c2cc(CCCC(=O)O)ccc2OCC2CCCCC2)c1 [Example 20, 2-cyclohexylmethoxy-2'-hydroxy-5, 5'-bis (3-carboxypropyl) biphenyl]
Sciatic Nerve
  inhibition at 1 µg/mL: 51.5%
[1]
  inhibition at 0.02 µg/mL: 18.7%
  inhibition at 0.1 µg/mL: 73.1%

## CCOc1ccc(CCCC(=O)O)cc1-c1cc(CCCC(=O)O)ccc1O [Example 22, 2-ethoxy-2'-hydroxy-5,5'-bis (3-carboxypropyl) biphenyl]
[1]
  inhibition at 0.02 µg/mL: 27.2%
  inhibition at 0.1 µg/mL: 63.9%

## CCCCOc1ccc(CCCC(=O)O)cc1-c1cc(CCCC(=O)O)ccc1O [Example 24, 2-butoxy-2'-hydroxy-5,5'-bis (3-carboxypropyl) biphenyl]
[1]
  inhibition at 0.02 µg/mL: 25.6%
  inhibition at 0.1 µg/mL: 62.6%

## CCCCCCCOc1ccc(CCCC(=O)O)cc1-c1cc(CCCC(=O)O)ccc1O [Example 25, 2-heptyloxy-2'-hydroxy-5,5'-bis (3-carboxypropyl) biphenyl]
[1]
  inhibition at 0.02 µg/mL: 20.5%
  inhibition at 0.1 µg/mL: 69.2%

## CCCCCCCCOc1ccc(CCCC(=O)O)cc1-c1cc(CCCC(=O)O)ccc1O [Example 26, 2-octyloxy-2'-hydroxy-5,5'-bis (3-carboxypropyl) biphenyl]
Sciatic Nerve
  inhibition at 1 µg/mL: 43.3%
[1]
  inhibition at 0.02 µg/mL: 35.3%
  inhibition at 0.1 µg/mL: 73.1%

## CC(C)CCOc1ccc(CCCC(=O)O)cc1-c1cc(CCCC(=O)O)ccc1O [Example 27, 2-isopentyloxy-2'-hydroxy-5, 5'-bis (3-carboxypropyl) biphenyl]
[1]
  inhibition at 0.02 µg/mL: 23.8%
  inhibition at 0.1 µg/mL: 61.2%

## O=C(O)CCCc1ccc(O)c(-c2cc(CCCC(=O)O)ccc2OCCCCl)c1 [Example 28, 2-(3-chloropropoxy)-2'-hydroxy-5, 5'-bis (3-carboxypropyl) biphenyl]
Sciatic Nerve
  inhibition at 1 µg/mL: 69%
[1]
  inhibition at 0.02 µg/mL: 28.8%
  inhibition at 0.1 µg/mL: 71.7%
